# Data from PMC4022186 (Biochemistry, 2012).
# Key:
# [1] = molecular target: T1, E. coli QueD (CPH4 synthase) (Escherichia coli, UniProt P65870); test: preparative conversion to [7R-D]-CPH4; assay type: biochemical; conditions: 5 μM QueD, 20 mM PIPES pH 7.4, 10 mM DTT, 18 h, H2O
# [2] = molecular target: T1, E. coli QueD (CPH4 synthase); test: preparative conversion to [[…]-2H]-CPH4; assay type: biochemical; conditions: 5 mM sepiapterin, 15 μM QueD, 20 mM PIPES, 99.9% D2O, 20 h
# T1 sequence (P65870 whole entry): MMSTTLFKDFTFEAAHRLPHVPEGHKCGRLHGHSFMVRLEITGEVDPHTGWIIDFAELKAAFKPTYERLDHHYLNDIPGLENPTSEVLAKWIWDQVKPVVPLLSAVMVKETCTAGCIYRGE
smiles,measurement,setting,value
Nc1nc2c(c(=O)[nH]1)N=C([C@H](O)[C@H](O)COP(=O)(O)OP(=O)(O)OP(=O)(O)O)CN2 [H2NTP],preparative conversion to [7R-D]-CPH4; FT-ICR MS of product,[1],The resulting H2NTP was converted to CPH4 in a reaction mixture
C[C@H](O)C(=O)C1=Nc2c(nc(N)[nH]c2=O)NC1 [sepiapterin],preparative conversion to [6-2H]-CPH4; FT-ICR MS of product,[2],this reaction was used to prepare CPH4 containing deuterium at C-6
